Laboratory results from PubChem BioAssay AID330 (DTP/NCI, 2004).
Where “and” joins values, the source holds several entries; their conditions need not be identical. Equal entries are not always repeated. Inconclusive results and toxic doses are left out.

System: P388 leukemia ip, CD2F1 mice, survival T/C
Assay: NCI In Vivo Anticancer Drug Screen. Data for tumor model P388 Leukemia (intraperitoneal) in CD2F1 (CDF1) mice
Details: endpoint: median survival time, higher = longer survival
Summary of the method: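 Mice carrying the transplanted tumor received test compound or vehicle. Survival was recorded in each group, and the value is the treated-group measurement divided by that of the vehicle-treated control group.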

[1] = dose: 50.0 mg/kg/injection, schedule: Q01DX005 (ip), vehicle: Klucel (hydroxypropylcellulose) (HPC)
[2] = dose: 100.0 mg/kg/injection, schedule: Q01DX005 (ip), vehicle: Klucel (hydroxypropylcellulose) (HPC)
[3] = dose: 200.0 mg/kg/injection, schedule: Q01DX005 (ip), vehicle: Klucel (hydroxypropylcellulose) (HPC)

CO[C@@]12[C@H](COC(N)=O)C3=C(C(=O)C(C)=C(N)C3=O)N1C[C@@H]1N[C@@H]12
T/C (dose: 0.25 mg/kg/injection, schedule: Q01DX009 (ip), vehicle: saline with Tween-80): 160 % of control and 166 % of control
T/C (dose: 0.5 mg/kg/injection, schedule: Q01DX009 (ip), vehicle: saline with Tween-80): 150 % of control and 157 % of control and 210 % of control
T/C (dose: 0.5 mg/kg/injection, schedule: Q04DX003 (ip), vehicle: saline): 112 % of control
T/C (dose: 0.65 mg/kg/injection, schedule: Q04DX002 (ip), vehicle: saline): 160 % of control
T/C (dose: 0.75 mg/kg/injection, schedule: Q04DX003 (ip), vehicle: saline): 150 % of control and 163 % of control
T/C (dose: 0.75 mg/kg/injection, schedule: Q04DX003 (ip), vehicle: water): 170 % of control
T/C (dose: 0.78 mg/kg/injection, schedule: Q04DX003 (ip), vehicle: saline): 152 % of control and 153 % of control
T/C (dose: 0.97 mg/kg/injection, schedule: Q04DX003 (ip), vehicle: saline): 150 % of control
T/C (dose: 1.0 mg/kg/injection, schedule: Q01DX009 (ip), vehicle: saline with Tween-80): 166 % of control and 169 % of control
T/C (dose: 1.08 mg/kg/injection, schedule: Q04DX002 (ip), vehicle: saline): 164 % of control
T/C (dose: 1.1 mg/kg/injection, schedule: Q04DX003 (ip), vehicle: water): 159 % of control
T/C (dose: 1.3 mg/kg/injection, schedule: Q04DX002 (ip), vehicle: saline): 163 % of control
T/C (dose: 1.3 mg/kg/injection, schedule: Q04DX003 (ip), vehicle: saline): 174 % of control and 180 % of control
T/C (dose: 1.5 mg/kg/injection, schedule: Q04DX003 (ip), vehicle: saline): 155 % of control and 161 % of control and 183 % of control
T/C (dose: 1.5 mg/kg/injection, schedule: Q04DX003 (ip), vehicle: water): 163 % of control and 200 % of control
T/C (dose: 1.62 mg/kg/injection, schedule: Q04DX003 (ip), vehicle: saline): 163 % of control
T/C (dose: 1.8 mg/kg/injection, schedule: Q04DX002 (ip), vehicle: saline): 175 % of control
T/C (dose: 1.8 mg/kg/injection, schedule: Q04DX003 (ip), vehicle: water): 174 % of control
T/C (dose: 2.0 mg/kg/injection, schedule: Q01DX009 (ip), vehicle: saline with Tween-80): 104 % of control and 120 % of control
T/C (dose: 2.0 mg/kg/injection, schedule: Q04DX003 (ip), vehicle: saline): 163 % of control
T/C (dose: 2.16 mg/kg/injection, schedule: Q04DX002 (ip), vehicle: saline): 162 % of control
T/C (dose: 2.16 mg/kg/injection, schedule: Q04DX003 (ip), vehicle: saline): 155 % of control (2×) and 174 % of control
T/C (dose: 2.7 mg/kg/injection, schedule: Q04DX003 (ip), vehicle: saline): 183 % of control and 204 % of control
T/C (dose: 3.0 mg/kg/injection, schedule: Q01DX001 (ip), vehicle: saline): 169 % of control
T/C (dose: 3.0 mg/kg/injection, schedule: Q04DX002 (ip), vehicle: saline): 212 % of control
T/C (dose: 3.0 mg/kg/injection, schedule: Q04DX003 (ip), vehicle: water): 190 % of control and 197 % of control
T/C (dose: 3.5 mg/kg/injection, schedule: Q01DX001 (ip), vehicle: carboxymethylcellulose (CMC)): 183 % of control
T/C (dose: 3.6 mg/kg/injection, schedule: Q01DX001 (ip), vehicle: water): 175 % of control and 176 % of control
T/C (dose: 3.6 mg/kg/injection, schedule: Q04DX002 (ip), vehicle: saline): 159 % of control
T/C (dose: 3.6 mg/kg/injection, schedule: Q04DX003 (ip), vehicle: saline): 184 % of control and 220 % of control and 235 % of control
T/C (dose: 4.0 mg/kg/injection, schedule: Q01DX001 (ip), vehicle: saline): 156 % of control and 167 % of control
T/C (dose: 4.0 mg/kg/injection, schedule: Q04DX003 (ip), vehicle: saline): 150 % of control
T/C (dose: 4.4 mg/kg/injection, schedule: Q01DX001 (ip), vehicle: saline): 158 % of control
T/C (dose: 4.5 mg/kg/injection, schedule: Q04DX003 (ip), vehicle: saline): 219 % of control
T/C (dose: 4.7 mg/kg/injection, schedule: Q01DX001 (ip), vehicle: saline): 174 % of control
T/C (dose: 5.0 mg/kg/injection, schedule: Q04DX002 (ip), vehicle: saline): 157 % of control
T/C (dose: 5.0 mg/kg/injection, schedule: Q04DX003 (ip), vehicle: water): 228 % of control
T/C (dose: 5.3 mg/kg/injection, schedule: Q01DX001 (ip), vehicle: carboxymethylcellulose (CMC)): 191 % of control
T/C (dose: 5.4 mg/kg/injection, schedule: Q01DX001 (ip), vehicle: water): 184 % of control and 206 % of control and 216 % of control
T/C (dose: 6.0 mg/kg/injection, schedule: Q01DX001 (ip), vehicle: saline): 162 % of control and 166 % of control and 255 % of control
T/C (dose: 6.0 mg/kg/injection, schedule: Q04DX002 (ip), vehicle: saline): 120 % of control
T/C (dose: 6.7 mg/kg/injection, schedule: Q01DX001 (ip), vehicle: saline): 188 % of control
T/C (dose: 7.0 mg/kg/injection, schedule: Q01DX001 (ip), vehicle: saline): 165 % of control
T/C (dose: 7.5 mg/kg/injection, schedule: Q04DX003 (ip), vehicle: saline): 122 % of control
T/C (dose: 8.0 mg/kg/injection, schedule: Q01DX001 (ip), vehicle: water): 178 % of control and 222 % of control and 280 % of control
T/C (dose: 8.3 mg/kg/injection, schedule: Q04DX003 (ip), vehicle: water): 87 % of control

O=C1C=C(Cl)C(=O)C(c2ccccc2)=C1Cl
T/C (dose: 12.5 mg/kg/injection, schedule: Q01DX005 (ip), vehicle: Klucel (hydroxypropylcellulose) (HPC)): 96 % of control
T/C (dose: 25.0 mg/kg/injection, schedule: Q01DX005 (ip), vehicle: Klucel (hydroxypropylcellulose) (HPC)): 91 % of control

COc1ccc(/C=N/N2C(=O)c3ccccc3C2=O)cc1
T/C [1]: 105 % of control
T/C [2]: 93 % of control
T/C [3]: 100 % of control

CCOC(=O)C(=O)Nc1ccccc1
T/C (dose: 100.0 mg/kg/injection, schedule: Q01DX009 (ip), vehicle: saline with Tween-80): 99 % of control
T/C (dose: 200.0 mg/kg/injection, schedule: Q01DX009 (ip), vehicle: saline with Tween-80): 97 % of control
T/C (dose: 400.0 mg/kg/injection, schedule: Q01DX009 (ip), vehicle: saline with Tween-80): 99 % of control

COc1ccc(C2(c3ccc(OC)cc3)N=NC3(C)CC32)cc1 (centres undefined)
T/C (dose: 100.0 mg/kg/injection, schedule: Q01DX001 (ip), vehicle: saline with Tween-80): 92 % of control
T/C (dose: 200.0 mg/kg/injection, schedule: Q01DX001 (ip), vehicle: saline with Tween-80): 89 % of control
T/C (dose: 400.0 mg/kg/injection, schedule: Q01DX001 (ip), vehicle: saline with Tween-80): 86 % of control

COc1cc2c(C)cc(=O)oc2c(OCC(O)CN2CCCC2)c1OC (centres undefined)
T/C (dose: 60.0 mg/kg/injection, schedule: Q01DX005 (ip), vehicle: saline): 96 % of control
T/C (dose: 120.0 mg/kg/injection, schedule: Q01DX005 (ip), vehicle: saline): 99 % of control

C=C/C(=C/CC(=O)O[C@@H]1CCC(C)(C)C(C=O)=C1C)Sc1ccccc1
T/C (dose: 50.0 mg/kg/injection, schedule: Q01DX001 (ip), vehicle: DMSO): 92 % of control
T/C (dose: 100.0 mg/kg/injection, schedule: Q01DX001 (ip), vehicle: DMSO): 92 % of control
T/C (dose: 200.0 mg/kg/injection, schedule: Q01DX001 (ip), vehicle: DMSO): 92 % of control

O=c1c2sc3ccccc3c2ncn1CN1CCOCC1
T/C [1]: 112 % of control
T/C [2]: 121 % of control
T/C [3]: 118 % of control

COc1cc([C@@H]2c3cc4c(cc3[C@H](OC(=O)CCCC(=O)O)[C@H]3COC(=O)[C@H]23)OCO4)cc(OC)c1OC
T/C (dose: 3.12 mg/kg/injection, schedule: Q01DX005 (ip), vehicle: saline): 100 % of control
T/C (dose: 6.25 mg/kg/injection, schedule: Q01DX005 (ip), vehicle: saline): 104 % of control
T/C (dose: 12.5 mg/kg/injection, schedule: Q01DX005 (ip), vehicle: saline): 110 % of control and 122 % of control

CCC(CCC(C)C1CCC2C3CC=C4CC(O)CCC4(C)C3CCC12C)C(C)C (centres undefined) (tested in a mixture with another compound)
T/C (dose: 50.0 mg/kg/injection, schedule: Q01DX009 (ip), vehicle: Klucel (hydroxypropylcellulose) (HPC)): 105 % of control
T/C (dose: 100.0 mg/kg/injection, schedule: Q01DX009 (ip), vehicle: Klucel (hydroxypropylcellulose) (HPC)): 90 % of control

C[C@]12CCC[C@@H](O)[C@H]1O2
T/C (dose: 100.0 mg/kg/injection, schedule: Q04DX003 (ip), vehicle: saline): 104 % of control
T/C (dose: 200.0 mg/kg/injection, schedule: Q04DX003 (ip), vehicle: saline): 103 % of control
T/C (dose: 400.0 mg/kg/injection, schedule: Q04DX003 (ip), vehicle: saline): 109 % of control

COc1ccc2c(c1)c(COC(C)=O)c(COC(C)=O)c[n+]2[O-]
T/C [1]: 98 % of control
T/C [2]: 97 % of control
T/C [3]: 94 % of control

NCCc1ccc(OCc2ccccc2)c(OCc2ccccc2)c1
T/C (dose: 6.25 mg/kg/injection, schedule: Q01DX009 (ip), vehicle: saline): 101 % of control and 107 % of control
T/C (dose: 12.5 mg/kg/injection, schedule: Q01DX009 (ip), vehicle: saline): 108 % of control and 118 % of control
T/C (dose: 25.0 mg/kg/injection, schedule: Q01DX009 (ip), vehicle: saline): 101 % of control and 109 % of control
